Measured values: US20230277569A1, “Compositions and Methods for Treating, Ameliorating and/or Preventing Cancer and Kits for the Same” (priority 2022, published 2023)

Assay: Phase I, cytochrome P450-mediated human liver microsome metabolism
Settings: 0.5 μM; human liver microsomes

With `Cc1ncc2n1-c1ccc(Cl)cc1C(c1ccccc1F)=NC2` [Midazolam, reference compound] as the molecule, how does the “elimination rate constant (k)” value read?
Its value is 0.04.

And the “intrinsic clearance (CLint)” value?
Its value is 3.23 mL/min/g.
